From US20120157401A1, “METHODS FOR TREATING NEUROFIBROMATOSIS” (PTC Therapeutics, Inc., priority 2009, published 2012)
Read-outs that look alike come from different tables or passages of the source.

Tested on: hypoxia-inducible endogenous VEGF expression
Test: Hypoxia-inducible endogenous VEGF expression ELISA in HeLa cells, dose-response EC50 (Table 3)
Assay type: cell-based, human
Details: Homo sapiens
Procedure, shortened: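 HeLa cells kept 24-48 h under hypoxia (1% O2, 5% CO2, nitrogen balance) with or without compound, e.g. seven concentrations; secreted VEGF in conditioned medium quantified by ELISA against a standard curve. Parallel Cell Titer Glo viability under identical conditions excludes cytotoxicity.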

[1] = HeLa cells, hypoxic conditions (1% O2), 24-48 hours, VEGF in conditioned media, read-out: ELISA EC50
[2] = HeLa cells, hypoxic conditions (1% O2), VEGF ELISA of conditioned media, read-out: ELISA EC50

## COc1ccc(OC(=O)N2CCc3c([nH]c4ccc(Cl)cc34)C2c2ccc(S(=O)(=O)N3CCOCC3)cc2)cc1 (stereo not drawn) [Compound 455]
[1]
  EC50: 0.008 to 0.04 µM

## O=C(OCCN1CCOCC1)N1CCC(Oc2ccc([C@H]3c4[nH]c5ccc(Cl)cc5c4CCN3C(=O)Oc3ccc(Cl)cc3)cc2)CC1 [Compound 1693]
HeLa, read-out: ELISA EC50 μM
  EC50: < 0.008 µM

## O=C(Oc1ccc(Cl)cc1)N1CCc2c([nH]c3ccc(Cl)cc23)C1c1ccc(OCCCCn2ccnc2)cc1 (stereo not drawn) [Compound 705]
[1]
  EC50: 0.008 to 0.04 µM

## O=C(Oc1ccc(Cl)cc1)N1CCc2c([nH]c3ccc(Cl)cc23)C1c1ccc(OCC(O)CN2CCN(CCO)CC2)cc1 (stereo not drawn) [Compound 960]
HeLa, read-out: ELISA EC50 μM
  EC50: 0.008 to 0.04 µM

## O=C(Oc1ccc(F)cc1)N1CCc2c([nH]c3ccc(Br)cc23)C1c1ccc(OCC[C@H](O)CO)cc1 (stereo partly drawn) [Compound 1348]
[2]
  EC50: < 0.008 µM

## O=C(Oc1ccc(F)cc1)N1CCc2c([nH]c3ccc(Cl)cc23)C1c1ccc(OCC(O)Cn2nccn2)cc1 (stereo not drawn) [Compound 1067]
[1]
  EC50: 0.008 to 0.04 µM

## O=C(Oc1ccc(Cl)cc1)N1CCc2c([nH]c3ccc(Cl)cc23)C1c1ccc(OCCCCCl)cc1 (stereo not drawn) [Compound 660]
[1]
  EC50: < 0.008 µM

## CN1CCN(CC(O)COc2ccc(C3c4[nH]c5ccc(Cl)cc5c4CCN3C(=O)Oc3ccc(Cl)cc3)cc2)CC1 (stereo not drawn) [Compound 970]
HeLa, read-out: ELISA EC50 μM
  EC50: 0.008 to 0.04 µM

## O=C(Oc1ccc(Cl)cc1)N1CCc2c([nH]c3ccc(Cl)cc23)C1c1ccc(OCC(O)Cn2cncn2)cc1 (stereo not drawn) [Compound 996]
[1]
  EC50: < 0.008 µM

## O=C(Oc1ccc(F)cc1)N1CCc2c([nH]c3ccc(Cl)cc23)C1c1ccc(OCCn2cccn2)cc1 (stereo not drawn) [Compound 836]
[1]
  EC50: 0.008 to 0.04 µM

## Nc1ccn(CCOc2ccc(C3c4[nH]c5ccc(Cl)cc5c4CCN3C(=O)Oc3ccc(F)cc3)cc2)n1 (stereo not drawn) [Compound 1413]
[2]
  EC50: < 0.008 µM

## COc1cc(C2c3[nH]c4ccc(Cl)cc4c3CCN2C(=O)Oc2ccc(Cl)cc2)ccc1OCCn1cncn1 (stereo not drawn) [Compound 1086]
[1]
  EC50: 0.008 to 0.04 µM

## CCOC(=O)NC[C@H](O)COc1ccc([C@H]2c3[nH]c4ccc(Cl)cc4c3CCN2C(=O)Oc2ccc(F)cc2)cc1 [Compound 1663]
[2]
  EC50: < 0.008 µM

## COc1cc(C2c3[nH]c4ccc(Cl)cc4c3CCN2C(=O)Oc2ccc(C)cc2)ccc1OCCCn1cncn1 (stereo not drawn) [Compound 1152]
[1]
  EC50: 0.008 to 0.04 µM

## COCCCNCCCCCCOc1ccc(C2c3[nH]c4ccc(Cl)cc4c3CCN2C(=O)Oc2ccc(F)cc2)cc1 (stereo not drawn) [Compound 775]
HeLa, read-out: ELISA EC50 μM
  EC50: < 0.008 µM

## CCC(CO)(CO)COc1ccc(C2c3[nH]c4ccc(Br)cc4c3CCN2C(=O)Oc2ccc(F)cc2)cc1 (stereo not drawn) [Compound 1357]
[2]
  EC50: < 0.008 µM

## COCCOCCOc1ccc(C2c3[nH]c4ccc(Cl)cc4c3CCN2C(=O)Oc2ccc(OC)cc2)cc1 (stereo not drawn) [Compound 678]
[1]
  EC50: 0.04 to 0.2 µM

## O=C(Oc1ccc(Cl)cc1)N1CCc2c([nH]c3ccc(Cl)cc23)C1c1ccc(OC2CCOCC2)cc1 (stereo not drawn) [Compound 1578]
[2]
  EC50: < 0.008 µM

## COc1ccc(C2c3[nH]c4ccc(Cl)cc4c3CCN2C(=O)Oc2ccc(C)cc2)cc1F (stereo not drawn) [Compound 1196]
[1]
  EC50: 0.008 to 0.04 µM

## CS(=O)(=O)Nc1ccc(C2c3[nH]c4ccc(Cl)cc4c3CCN2C(=O)Oc2ccc(Cl)cc2)cc1 (stereo not drawn) [Compound 974]
[1]
  EC50: 0.04 to 0.2 µM

## COCCOC(=O)NCC(O)CCOc1ccc([C@H]2c3[nH]c4ccc(Cl)cc4c3CCN2C(=O)Oc2ccc(C)cc2)cc1 (stereo partly drawn) [Compound 1645]
[2]
  EC50: < 0.008 µM

## O=C(Oc1ccccc1)N1CCc2c([nH]c3ccc(Cl)cc23)C1c1ccc(OCCCN2CCOCC2)cc1 (stereo not drawn) [Compound 1075]
HeLa, read-out: ELISA EC50 μM
  EC50: 0.008 to 0.04 µM

## COCCOc1ccc(C2c3[nH]c4ccc(Cl)cc4c3CCN2C(=O)Oc2ccccc2)cc1 (stereo not drawn) [Compound 436]
[1]
  EC50: < 0.008 µM

## Cc1ccc(OC(=O)N2CCc3c([nH]c4ccc(Cl)cc34)C2c2ccc(OCCCn3cncn3)cc2)cc1 (stereo not drawn) [Compound 882]
[1]
  EC50: < 0.008 µM

## COc1cc(C2c3[nH]c4ccc(Cl)cc4c3CCN2C(=O)Oc2ccc(Cl)cc2)ccc1OCCCCn1cncn1 (stereo not drawn) [Compound 1088]
[1]
  EC50: 0.008 to 0.04 µM

## CC(CO)(CO)COc1ccc([C@H]2c3[nH]c4ccc(Cl)cc4c3CCN2C(=O)Oc2ccc(Cl)cc2)cc1 [Compound 1230]
[1]
  EC50: < 0.008 µM

## O=C(Oc1ccc(Cl)cc1)N1CCc2c([nH]c3ccc(Cl)cc23)C1c1ccc(OCCCCCCNCCO)cc1 (stereo not drawn) [Compound 782]
HeLa, read-out: ELISA EC50 μM
  EC50: < 0.008 µM

## O=C(Oc1ccc(Br)cc1)N1CCc2c([nH]c3ccc(Cl)cc23)C1c1ccc(OCC2OCCO2)cc1 (stereo not drawn) [Compound 1054]
[1]
  EC50: < 0.008 µM

## CC1(C)C(=O)NC(=O)N1CCCOc1ccc(C2c3[nH]c4ccc(Cl)cc4c3CCN2C(=O)Oc2ccc(Cl)cc2)cc1 (stereo not drawn) [Compound 1671]
HeLa, read-out: ELISA EC50 μM
  EC50: < 0.008 µM

## CC1(C)OC[C@H](CCOc2ccc([C@H]3c4[nH]c5ccc(Cl)cc5c4CCN3C(=O)Oc3ccc(Cl)cc3)cc2)O1 [Compound 1203]
[1]
  EC50: < 0.008 µM

## NC(=O)c1cn(CCOc2ccc(C3c4[nH]c5ccc(Cl)cc5c4CCN3C(=O)Oc3ccc(Cl)cc3)cc2)nc1N (stereo not drawn) [Compound 1422]
[2]
  EC50: 0.008 to 0.04 µM

## CC1(C)OC[C@H](CCOc2ccc(C3c4[nH]c5ccc(Cl)cc5c4CCN3C(=O)Oc3ccc(Cl)cc3)cc2)O1 (stereo partly drawn) [Compound 1162]
[1]
  EC50: < 0.008 µM

## CN1CCCC(COc2ccc(C3c4[nH]c5ccc(Cl)cc5c4CCN3C(=O)Oc3ccccc3Cl)cc2)C1 (stereo not drawn) [Compound 976]
HeLa, read-out: ELISA EC50 μM
  EC50: 0.04 to 0.2 µM

## CN1CCN(CCCCCCOc2ccc(C3c4[nH]c5ccc(Cl)cc5c4CCN3C(=O)Oc3ccc(F)cc3)cc2)CC1 (stereo not drawn) [Compound 778]
HeLa, read-out: ELISA EC50 μM
  EC50: < 0.008 µM

## O=C(Oc1ccccc1)N1CCc2c([nH]c3ccc(Br)cc23)C1c1ccccc1 (stereo not drawn) [Compound 76]
[1]
  EC50: 0.008 to 0.04 µM

## NC(=O)c1cn(CCOc2ccc(C3c4[nH]c5ccc(Cl)cc5c4CCN3C(=O)Oc3ccc(F)cc3)cc2)nc1N (stereo not drawn) [Compound 1416]
[2]
  EC50: 0.04 to 0.2 µM

## O=C(Oc1ccc(Cl)cc1)N1CCc2c([nH]c3ccc(Cl)cc23)C1c1ccc(OCCCN2CCCCC2)cc1 (stereo not drawn) [Compound 433]
HeLa, read-out: ELISA EC50 μM
  EC50: < 0.008 µM

## Cc1cc(N)nn1CCOc1ccc(C2c3[nH]c4ccc(Cl)cc4c3CCN2C(=O)Oc2ccc(F)cc2)cc1 (stereo not drawn) [Compound 1414]
[2]
  EC50: < 0.008 µM

## O=C(Oc1ccc(Cl)cc1)N1CCc2c([nH]c3ccc(Cl)cc23)C1c1ccc(OC(CO)CO)cc1 (stereo not drawn) [Compound 1231]
[1]
  EC50: 0.008 to 0.04 µM

## O=C(Oc1ccc(Cl)cc1)N1CCc2c([nH]c3ccc(Cl)cc23)C1c1ccc(N2CCCC2)cc1 (stereo not drawn) [Compound 984]
[1]
  EC50: 0.2 to 1 µM

## COc1ccc(C2c3[nH]c4ccc(Cl)cc4c3CCN2C(=O)Oc2ccc(F)cc2)cc1F (stereo not drawn) [Compound 1195]
[1]
  EC50: 0.008 to 0.04 µM

## Cc1ccc(C2c3[nH]c4ccc(Cl)cc4c3CCN2C(=O)Oc2ccc(Cl)cc2)cc1 (stereo not drawn) [Compound 347]
[1]
  EC50: < 0.008 µM

## [H]/N=c1\scnn1CCOc1ccc(C2c3[nH]c4ccc(Cl)cc4c3CCN2C(=O)Oc2ccc(Cl)cc2)cc1 (stereo not drawn) [Compound 1420]
[2]
  EC50: < 0.008 µM

## CC(=O)OCC1OC(n2cc(COc3ccc([C@H]4c5[nH]c6ccc(Cl)cc6c5CCN4C(=O)Oc4ccc(Cl)cc4)cc3)nn2)C(OC(C)=O)C(OC(C)=O)C1OC(C)=O (stereo partly drawn) [Compound 1675]
[2]
  EC50: 0.04 to 0.2 µM

## O=C(Oc1ccc(Cl)cc1)N1CCc2c([nH]c3ccc(Cl)cc23)[C@H]1c1ccc(OCC[C@H](O)CO)cc1 [Compound 1330]
[2]
  EC50: > 1 µM

## O=C(Oc1ccc(Cl)cc1)N1CCc2c([nH]c3ccc(Cl)cc23)[C@@H]1c1ccc(OCCCNC2CCCC2)cc1 [Compound 1235]
HeLa, read-out: ELISA EC50 μM
  EC50: 0.008 to 0.04 µM

## O=C(Oc1ccc(Cl)cc1)N1CCc2c([nH]c3ccc(Cl)cc23)[C@@H]1c1ccc(OC2OC(CO)C(O)C(O)C2O)cc1 (stereo partly drawn) [Compound 1695]
[2]
  EC50: 0.2 to 1 µM

## COCCN1CCN(C(=O)COc2ccc(C3c4[nH]c5ccc(Cl)cc5c4CCN3C(=O)Oc3ccc(OC)cc3)cc2)CC1 (stereo not drawn) [Compound 1025]
HeLa, read-out: ELISA EC50 μM
  EC50: 0.04 to 0.2 µM
